Experiments:
Aurora kinase A = Aurora kinase A (Homo sapiens, UniProt O14965); assay: Kinase panel assay (Z'-LYTE, SelectScreen), Aurora kinase A; format: biochemical; conditions: 1 μM compound, 100 μM ATP; among kinases inhibited by more than 50%
Description: (§1) Kinase panel assays were performed using the FRET-based Z’- LYTE enzymatic kinase assay system (Life Technologies, Carlsbad, CA), which was carried out using the SelectScreen Kinase Profiling Service (Life Technologies). The standard reaction contained 2 μM peptide substrate, 100 μM ATP, 50 mM HEPES (pH 7.5), 0.01% Brij-35, 10 mM MgCl2, 1 mM EGTA, and each kinase. Cpd-1, Cpd-2, and Cpd-3 at two point concentration (100 and 1000 nM) with duplicate data points (n = 2) were assayed following the detailed procedures outlined in the SelectScreen. The full assay protocol and conditions can be obtained at www.lifetechnologies.com. Percent inhibition represents a ratio of phosphorylated product formed in the presence of the compound compared with phosphorylated product formed in reactions containing 1% DMSO. Inhibition data indicates the mean value of kinase inhibition from duplicate data.

[1] = tested on: mRNA isoforms harboring PTCs in MDA-MB-468 cells; assay: Fluorescence pulse-chase RNA labeling assay; format: cell-based, human; conditions: 50 μM Cpd-1 or 5 μM Cpd-2
Description: MDA-MB-468 cells (5 × 10^5) were seeded into 6-well plates and incubated overnight. The cells were treated with each compound for 6 h and incubated with culture medium containing 5-EU (Invitrogen) to label cellular RNA. After incubation for 1 h, the medium was replaced with EU-free fresh medium and the cells were cultured for a further 24 h to allow degradation of the labeled RNA (chase). Cells were harvested before and after the chase and EU-labeled RNA was isolated using a Click-iT Nascent RNA Capture Kit (Invitrogen) according to the manufacturer’s instructions. The isolated RNA was analyzed by quantitative RT-PCR to measure the amount of each mRNA splice isoform.

CLK2 = target: T1, CLK2 (Homo sapiens, UniProt P49760); assay: Kinase panel assay (Z'-LYTE, SelectScreen), CLK2 among 28 kinases; format: biochemical; conditions: 100 and 1000 nM
T1 construct: purchased Life Technologies
Description: as §1

[2] = tested on: phospho-SR proteins in MDA-MB-468 cells; assay: Immunoblot of phospho-SR proteins; format: cell-based, human; conditions: MDA-MB-468, 3 h, anti-pan-phospho-SR antibody
Description: (§2) Cells were lysed in radioimmunoprecipitation assay buffer containing 50 mM Tris-HCl (pH 7.6), 150 mM NaCl, 1% Triton X-100, and protease inhibitor cocktail tablets (Roche). After removal of the insoluble matter by centrifugation at 15,000 rpm for 15 min, the protein concentrations of the supernatants were determined using a BCA Protein Assay Kit (Pierce Biotechnology, Rockford, IL). The lysates were directly combined with one-quarter volume of 5× sample buffer [25 mmol/L Tris-HCl pH 6.8, 10% glycerol, 0.8% SDS, and 0.004% bromophenol blue] and boiled at 100°C for 5 min. The samples were subjected to 5–20% gradient SDS-polyacrylamide gel electrophoresis, and the separated proteins were electrophoretically transferred to polyvinylidene difluoride membranes using an I-blot System (Invitrogen). The membranes were incubated with primary antibodies and visualized using enhanced chemiluminescence reagents (GE Healthcare). The primary antibodies were as follows: anti-phospho-SR (1H4), anti-SR (Invitrogen), anti-EGFR, anti-EIF3D, anti-GAPDH (Santa Cruz Biotechnology, Santa Cruz, CA), anti-S6K and anti-PARP (Cell Signaling Technology, Danvers, MA).

PI3Kα = PI3Kα (Homo sapiens, UniProt P42336); assay: Kinase panel assay (Z'-LYTE, SelectScreen), PI3Kα; format: biochemical; conditions: 1 μM compound, 100 μM ATP; among kinases inhibited by more than 50%
Description: as §1

[3] = tested on: S6K, EIF3D, and EGFR in MDA-MB-468 cells; assay: Immunoblot of S6K, EIF3D and EGFR protein levels; format: cell-based, human; conditions: MDA-MB-468, 24 h
Description: as §2

SRPK3 = target: T2, SRPK3 (Homo sapiens, UniProt Q9UPE1); assay: In vitro kinase assay (ADP-Glo), SRPK3; format: biochemical; conditions: 5 µM ATP
T2 construct: purchased Millipore
Description: The ATP concentration for each assay was adjusted to the Km for each kinase. Kinase assays for SRPK1–3 and CLK1 were performed using the ADP-Glo™ assay (Promega, Madison, WI). The kinase buffer contained 25 mM HEPES (pH 7.5), 10 mM magnesium acetate, 1 mM DTT, 0.01% BSA, and 0.01% Tween-20. The reaction mixtures contained 50 ng/mL SRPK1, 100 ng/mL SRPK2 or SRPK3, or 300 ng/mL CLK1 and 3 μM substrate peptide [GRSRSRSRSRSRSRSR] (Thermo Scientific). After incubating the enzyme, peptide, and compounds for 10 min, kinase reactions were initiated by adding ATP to a final concentration of 5 µM, followed by incubation for 30 min (15 min for SRPK1). The kinase reactions were terminated by adding ADP-Glo™ reagent (Promega). ADP was detected using a kinase detection reagent (Promega). The kinase activity of CLK2 was measured using the LANCE® Ultra assay (Perkin-Elmer, Waltham, MA) with ADP-Glo assay buffer. […] The enzyme reactions were terminated by adding 30 mM EDTA, and phosphorylated ULight-MBP peptides were detected using a europium-labeled anti-phospho-MBP antibody diluted with detection buffer (Perkin-Elmer). The plates were read using an EnVision 2102 multilabel reader (Perkin-Elmer). We defined the absorbance of the reaction without enzyme as 100% inhibitory activity and that of the complete reaction mixture as 0% inhibitory activity. […]

T1 sequence (P49760 whole entry): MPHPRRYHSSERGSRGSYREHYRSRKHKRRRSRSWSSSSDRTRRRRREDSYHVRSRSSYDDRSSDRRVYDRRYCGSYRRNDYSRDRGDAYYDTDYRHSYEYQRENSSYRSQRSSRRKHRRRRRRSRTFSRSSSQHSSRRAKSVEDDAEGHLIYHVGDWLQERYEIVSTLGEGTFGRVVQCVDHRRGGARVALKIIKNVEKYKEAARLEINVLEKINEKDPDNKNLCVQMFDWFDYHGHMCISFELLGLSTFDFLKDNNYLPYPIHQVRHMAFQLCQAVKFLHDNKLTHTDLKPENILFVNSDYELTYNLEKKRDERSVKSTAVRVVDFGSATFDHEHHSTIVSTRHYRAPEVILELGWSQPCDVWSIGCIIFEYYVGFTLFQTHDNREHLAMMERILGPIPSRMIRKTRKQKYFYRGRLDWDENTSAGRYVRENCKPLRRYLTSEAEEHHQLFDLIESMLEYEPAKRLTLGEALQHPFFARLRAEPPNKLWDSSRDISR
Sequence of Aurora kinase A (O14965 whole entry): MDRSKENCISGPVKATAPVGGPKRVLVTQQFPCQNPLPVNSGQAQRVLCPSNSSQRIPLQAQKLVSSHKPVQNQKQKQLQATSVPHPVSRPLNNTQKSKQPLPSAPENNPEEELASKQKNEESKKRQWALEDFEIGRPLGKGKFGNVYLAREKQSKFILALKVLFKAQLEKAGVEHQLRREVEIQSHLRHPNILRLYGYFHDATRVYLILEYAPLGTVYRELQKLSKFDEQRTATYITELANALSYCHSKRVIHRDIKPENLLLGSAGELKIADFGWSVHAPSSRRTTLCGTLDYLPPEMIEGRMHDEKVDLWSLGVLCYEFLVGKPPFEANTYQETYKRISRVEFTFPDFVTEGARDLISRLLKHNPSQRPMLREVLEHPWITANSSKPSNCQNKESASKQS
T2 sequence (Q9UPE1 whole entry): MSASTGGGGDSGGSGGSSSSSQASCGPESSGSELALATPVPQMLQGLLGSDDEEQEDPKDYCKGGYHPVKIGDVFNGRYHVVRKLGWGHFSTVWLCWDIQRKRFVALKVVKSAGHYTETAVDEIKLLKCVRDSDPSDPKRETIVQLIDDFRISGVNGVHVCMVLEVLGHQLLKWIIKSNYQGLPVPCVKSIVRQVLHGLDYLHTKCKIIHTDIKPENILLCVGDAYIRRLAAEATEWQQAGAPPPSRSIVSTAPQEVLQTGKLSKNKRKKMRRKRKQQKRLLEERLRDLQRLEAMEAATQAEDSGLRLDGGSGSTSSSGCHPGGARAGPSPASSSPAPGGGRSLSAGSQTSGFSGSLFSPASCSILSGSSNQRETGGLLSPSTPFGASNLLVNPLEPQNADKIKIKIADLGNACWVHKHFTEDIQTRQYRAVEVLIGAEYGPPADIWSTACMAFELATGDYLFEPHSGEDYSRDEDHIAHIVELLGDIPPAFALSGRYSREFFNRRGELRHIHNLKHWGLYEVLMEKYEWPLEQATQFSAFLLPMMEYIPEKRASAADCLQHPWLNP
Sequence of PI3Kα (P42336 whole entry): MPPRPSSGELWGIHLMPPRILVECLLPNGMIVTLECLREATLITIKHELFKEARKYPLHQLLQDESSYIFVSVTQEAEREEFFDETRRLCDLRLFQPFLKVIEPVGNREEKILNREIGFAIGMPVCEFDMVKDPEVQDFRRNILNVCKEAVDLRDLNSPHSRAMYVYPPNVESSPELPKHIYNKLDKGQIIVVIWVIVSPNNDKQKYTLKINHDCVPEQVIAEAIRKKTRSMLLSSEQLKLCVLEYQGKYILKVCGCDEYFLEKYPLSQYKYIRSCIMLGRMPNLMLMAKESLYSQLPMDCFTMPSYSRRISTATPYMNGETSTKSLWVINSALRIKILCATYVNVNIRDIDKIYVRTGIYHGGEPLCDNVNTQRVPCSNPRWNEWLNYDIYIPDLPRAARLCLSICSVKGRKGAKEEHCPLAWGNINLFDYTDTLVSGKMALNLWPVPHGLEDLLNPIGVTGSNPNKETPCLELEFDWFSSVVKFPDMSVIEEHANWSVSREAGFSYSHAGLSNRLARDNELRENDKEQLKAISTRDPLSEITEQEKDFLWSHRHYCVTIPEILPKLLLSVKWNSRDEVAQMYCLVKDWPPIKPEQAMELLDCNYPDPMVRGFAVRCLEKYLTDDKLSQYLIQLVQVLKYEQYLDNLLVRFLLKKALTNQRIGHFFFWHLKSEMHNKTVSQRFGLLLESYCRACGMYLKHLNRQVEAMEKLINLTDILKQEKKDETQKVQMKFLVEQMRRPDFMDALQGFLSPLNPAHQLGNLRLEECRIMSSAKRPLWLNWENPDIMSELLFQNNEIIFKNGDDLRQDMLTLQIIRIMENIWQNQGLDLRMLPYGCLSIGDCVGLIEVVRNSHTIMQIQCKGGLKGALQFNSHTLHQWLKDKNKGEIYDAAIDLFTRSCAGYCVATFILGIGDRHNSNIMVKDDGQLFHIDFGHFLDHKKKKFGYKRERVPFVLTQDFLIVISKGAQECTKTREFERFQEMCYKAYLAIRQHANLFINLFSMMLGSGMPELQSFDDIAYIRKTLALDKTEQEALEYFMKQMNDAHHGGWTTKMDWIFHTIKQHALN
Sequence of PI3Kα (P27986 whole entry partner): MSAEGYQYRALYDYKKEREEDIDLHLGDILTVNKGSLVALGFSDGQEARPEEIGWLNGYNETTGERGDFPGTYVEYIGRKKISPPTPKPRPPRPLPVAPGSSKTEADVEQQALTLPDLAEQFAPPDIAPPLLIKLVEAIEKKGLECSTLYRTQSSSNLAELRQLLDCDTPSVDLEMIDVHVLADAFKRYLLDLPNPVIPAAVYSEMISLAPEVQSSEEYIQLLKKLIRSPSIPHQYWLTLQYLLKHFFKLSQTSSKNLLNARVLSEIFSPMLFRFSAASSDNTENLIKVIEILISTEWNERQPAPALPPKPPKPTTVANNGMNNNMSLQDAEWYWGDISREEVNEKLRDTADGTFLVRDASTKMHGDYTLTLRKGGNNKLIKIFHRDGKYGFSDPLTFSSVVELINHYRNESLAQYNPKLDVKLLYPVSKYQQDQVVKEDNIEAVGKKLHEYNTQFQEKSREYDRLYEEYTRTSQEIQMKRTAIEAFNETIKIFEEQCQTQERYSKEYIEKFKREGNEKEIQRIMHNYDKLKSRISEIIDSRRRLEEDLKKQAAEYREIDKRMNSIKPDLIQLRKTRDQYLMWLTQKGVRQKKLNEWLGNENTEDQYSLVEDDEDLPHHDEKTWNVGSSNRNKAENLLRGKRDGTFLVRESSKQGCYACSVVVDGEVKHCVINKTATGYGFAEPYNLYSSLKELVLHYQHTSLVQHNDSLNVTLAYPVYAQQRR

| inhibition of Aurora kinase A in kinase panel (Aurora kinase A) | inhibition of PI3Kα in kinase panel (PI3Kα) | IC50 (SRPK3) [nM] | Compound | amounts of S6K mRNA isoforms harboring PTCs (exons 6–8, exons 6–10) versus canonical S6K exons 6–7 after 24 h chase [1] | inhibitory activity against CLK2 among the 28 critical oncology-related kinases (CLK2) | Phospho-SRSF1 (SF2) level [2] | phosphorylation levels of SRSF4 (SRp75) [2] | protein levels of S6K, EIF3D, and EGFR [3] |
| --- | --- | --- | --- | --- | --- | --- | --- | --- |
| moderately inhibited | – | – | CC(C)(CCc1nnn[nH]1)c1ccc(C(=O)Nc2cn3cc(C(F)(F)F)ccc3n2)cc1 [Cpd-1, 4-(2-methyl-4-(1H-tetrazol-5-yl)butan-2-yl)-N-(6-(trifluoromethyl)imidazo[1,2-a]pyridin-2-yl)benzamide] | significantly lower | strongest inhibitory activity against CLK2 | – | – | – |
| – | moderately inhibited | 230 | CC(C)(C)c1ccc(C(=O)Nc2cn3cc(-c4cn[nH]c4)ccc3n2)cn1 [Cpd-2, 6-tert-butyl-N-(6-(1H-pyrazol-4-yl)imidazo[1,2-a]pyridin-2-yl)nicotinamide] | significantly lower | strongest inhibitory activity against CLK2 | decreased | at lower concentrations than Cpd-1 | reduced the protein levels of S6K, EIF3D, and EGFR in a concentration-dependent manner |
| moderately inhibited | – | 260 | CC(C)(CO)c1ccc(C(=O)Nc2cn3cc(-c4cn[nH]c4)ccc3n2)cc1 [Cpd-3, 4-(1-hydroxy-2-methylpropan-2-yl)-N-(6-(1H-pyrazol-4-yl)imidazo[1,2-a]pyridin-2-yl)benzamide] | – | strongest inhibitory activity against CLK2 | decreased | at lower concentrations than Cpd-1 | – |

Source: publication PMC4291223, “Inhibitors of CLK Protein Kinases Suppress Cell Growth and Induce Apoptosis by Modulating Pre-mRNA Splicing” (PLoS ONE, 2015)
